From US4786755A, “Diphenic acid monoamides” (Warner-Lambert Company, priority 1986, dated 1988) come the findings set out here.

By inhibition is commonly meant the drop in the measured response relative to a control, in per cent. Usually IC50 stands for the concentration that inhibits the measured activity by half.

The test system of experiment [1] is Human Basophils. The experiment can be described thus: Histamine Release from Human Basophils (HHB). Particulars: Homo sapiens, 33 μM cpd. The format is cell-based. The source says:
Histamine Release from Human Basophils (HHB) Procedure for Quantitating Active Histamine Release, and its Inhibition by Drugs, from Basophils of Human Blood Using an Automated Fluorometric Histamine Assay
Mediator (histamine) release from human blood basophils is an assay which provides a model for evaluating potential antiallergy (mediator release inhibitors) compounds.
Blood from allergic donors is obtained from volunteers through the Community Research Clinic. The leukocytes are removed after Hespan® sedimentation, washed and concentrated using calcium and magnesium free Hepes buffered saline and resuspended in Hepes Hepes buffered saline with 1 mM calcium and magnesium added back. The cells are incubated briefly at room temperature with either buffer alone (for measuring spontaneous release and challenge agent stimulated release) 6% perchloric acid (for measuring total available histamine in the cells) or drug at various concentrations. The cells are then either treated with buffer alone (to measure control spontaneous and drug effect on spontaneous release) or appropriate challenge agent (e.g., anti-IgE, antigen) mixed and incubated for 45 minutes at 37° C. in a shaking water bath. The reaction is stopped by centrifugation and the supernate is poured into autoanalyzer sample cups and samples assayed for assayed for histamine content using an automated fluorometric assay. By comparing the histamine release of drug-treated cells and the challenge agent controls, drug inhibition of mediator (histamine) release can be evaluated.
Histamine release is induced by (1) an aqueous antigen extract (short rageweed or house dust), or (2) anti-IgE antisera. Whole human blood is obtained from volunteers through the Community Research Clinic (CRC-92). Volunteers are chosen on the basis of adequate histamine release induced by antigen, or antiIgE antisera challenge. Leukocytes are incubated in vitro with the challenge agents at several concentrations. Dose-response curves for each volunteer, using each challenge agent, are generated. Test compounds are evaluated for inhibition of a near maximal response to one or more challenge agents. By including appropriate controls, it is possble to measure the effect of the test compound, at various concentrations, in several ways: (1) the effect of the compound on histamine release for each challenge agent; (2) the effect of the test compound on spontaneous release of histamine in the absence of the challenge agent (buffer alone); and (3) the effect of the test compound on the histamine assay.
Histamine is assayed using an automated continuous flow system which quantitates samples of 0.4 ml or more in volume, and concentrations of approximately 0.5 ng/ml or more. The rate of analysis is 30 samples/hour.
Methods of preparing leukocytes for this assay are described by Theuson, et al, J. of Immunology, Vol. 123, p. 426 (1979).
Samples are run in triplicate, using either 1.5 ml polypropylene capped reaction tubes, or 5.0 ml plastic uncapped tubes. Test compounds and challenge agents are prepared in HACM buffer, as described above. Fixed volume pipettes are used.
Test compound or vehicle control is added to three reaction tubes at 1.5×the final desired concentration (i.e., 400 μl of test compound per 600 μl total reaction volume). One hundred μl of cells is added to each tube and the mixture is incubated for eight minutes at room temperature, and two minutes at 37° C. before antigen or other stimulus challenge. One hundred μl of the challenge agent at 6× the final concentration is then added, and the final mixture is incubated at 37° C. for 45 minutes in a shaking water bath. This ensures that the cell preparation is constantly in suspension. The reaction is stopped by centrifugation at 2000 RPM for three minutes at 4° C. The supernate (.perspectiveto.500 μl) is poured into 2.0 ml autoanalyzer beakers and assayed for histamine by the fluorometric method. […]

In experiment [2] the target is T1, leukotriene receptor (Cavia porcellus, UniProt Q2NNR5).
T1 construct: 20 mg original tissue wet weight of guinea pig lung membranes; tissue Kuiper Rabbit Farm, Gary, IN (animals); host or cells: guinea pig lung, crude membranes
T1 sequence (Q2NNR5 1-340): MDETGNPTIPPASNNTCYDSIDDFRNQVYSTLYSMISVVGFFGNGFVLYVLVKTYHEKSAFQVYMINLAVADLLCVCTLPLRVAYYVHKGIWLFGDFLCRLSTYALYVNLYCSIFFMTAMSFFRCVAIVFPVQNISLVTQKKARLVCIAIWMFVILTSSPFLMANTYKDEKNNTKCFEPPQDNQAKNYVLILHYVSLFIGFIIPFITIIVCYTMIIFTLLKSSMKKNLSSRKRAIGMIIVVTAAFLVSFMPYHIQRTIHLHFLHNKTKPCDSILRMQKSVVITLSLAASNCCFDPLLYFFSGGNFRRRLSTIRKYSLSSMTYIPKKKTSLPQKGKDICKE
As to the kind of experiment: Binding of ^3 H-Leukotriene D4 to Guinea Pig Lung Membranes (RBL). The settings on record: ^3 H-LTD4, guinea pig lung membranes; read-out: IC50 RBL1. As for the experimental part: Additionally, the activity, of the compounds having the Formula I of the present invention is determined by the well known leukotriene receptor binding assay that is described by R. F. Bruns, W. J. Thomsen and T. A. Pugsley in Life Sciences, 33, 645 (1983) or the Herxheimer in vivo antiallergy test described in H. Herxheimer, J. Physiol. (London), Vol. 177, p. 251 (1952).
Binding of ^3 H-Leukotriene D4 to Guinea Pig Lung Membranes (RBL)
[14,15-^3 H]leukotriene D4 (^3 H-LTD4) (25 Ci/mmol and 40 Ci/mmol) is purchased from New England Nuclear. Unlabeled LTC4 is a gift of Ono Pharmaceuticals (Japan). LTC4, LTD4, and LTE4 are purchased as methyl esters from Paesel GmbH (Frankfurt, W. Germany). Concentrations of the Paesel leukotrienes are calculated from their absorbance at 280 nm. Leukotriene esters are saponified overnight under N2 in 3.3% potassium carbonate at room temperature. Tritiated leukotrienes are stored as received from New England Nuclear at -20° C. Ono LTC4 (5 μg/ml is stored at -60° C. in phosphate buffer pH 6.8. Saponified Paesel leukotrienes are stored at -60° C. in 3.3% potassium carbonate (pH 9.0-9.5). Aliquots of leukotrienes are taken from stock solutions immediately after thawing, after which the stock solutions are immediately refrozen. 2-Amino-2-(hydroxymethyl)-1,3-propanediol (Tris) is Sigma pH 7.7 pre-set crystals, and dimethylsulfoxide is Aldrich Gold Label.
Preparation of crude lung membranes
Two pairs of lungs (1.3 g) from freshly sacrificed 300 g male guinea pigs (older animals gave substantially lower binding) from Kuiper Rabbit Farm, Gary, IN are disrupted with a Polytron PT 10 (setting 4) for 30 seconds in 20 ml ice-cold 50 mM Tris adjusted with HCl to pH 7.7 at 25° C. (Tris buffer), filtered through a single layer of gauze to remove connective tissue, and centrifuged at 50,000 xg for ten min. The pellet is resuspended by homogenization with a Polytron in 20 ml Tris buffer, centrifuged at 50,000 xg for ten min., resuspended, incubated at 37° C. for 30 minutes, and centrifuged again. The final pellet is resuspended in Tris buffer and either used fresh or stored at -70° C.
All incubations are in triplicate for 60 minutes at 25° C. in 12×75 mm polystyrene tubes containing 1 ml Tris buffer with 20 mg original tissue wet weight of guinea pig lung membranes, 0.2 nM ^3 H-LTD4 (6,000-11,000 cpm), 10 mM MgCl2, and 1% dimethylsulfoxide. Leukotrienes are diluted in Tris buffer. All other test compounds are dissolved at 10 mM in dimethylsulfoxide on the same day as the experiment, and diluted in dimethylsulfoxide to 100× the final incubation concentration. Control incubations receive an equal volume (10 μl) of dimethylsulfoxide; the resulting concentration of dimethylsulfoxide had no effect on binding. ^3 H-LTD4 is diluted to 2 nM in Tris buffer. The membrane suspension (20 mg/0.89 ml) contains sufficient MgCl2 to give 10 mM final concentration in the incubation. […] All additions are performed at 0° C. Immediately after the last addition, the incubation is initiated by agitating the rack of tubes on a vortex mixer and warming to 25° C. in a water bath. Tubes are vortexed at least once more during the incubation to ensure that the membranes remained suspended. Incubations are terminated after 60 minutes by filtering under reduced pressure through 25 mm Whatman GF/B filters followed by rapid washing three times with 4 ml of ice-cold Tris buffer. Filters are added to scintillation vials with 8 ml Formula 947 (New England Nuclear), left overnight, shaken, and the radioactivity counted in a scintillation counter (efficiency 40%). Nonspecific binding, defined as binding of ^3 H-LTD4 in the presence of 100 nM LTC4, is 300-500 cpm for all lots of ^3 H-LTD4. Binding to the filters in the absence of tissue is about 100 cpm, and is not affected by unlabeled LTC4. Specific binding, defined as total binding minus nonspecific binding, varied considerably from lot to lot of ^3 H-LTD4. […]

The subject of experiment [3] is Isolated Guinea Pig Lung Parenchyma. The experiment can be described thus: Smooth Muscle Receptor Agonism-Antagonism Activity Evaluations In Vitro (IVAS), LTC4-induced contraction. In kind it is cell-based.
Description: Smooth Muscle Receptor Agonism-Antagonism Activity Evaluations In Vitro (IVAS) Isolated Guinea Pig Lung Parenchyma
The potency of a test compound for receptor stimulation or antagonism, for example, can easily be determined since the concentration of the compound to which the muscle cell, or specialized responsive area on this cell, is exposed can be easily controlled and correlated with the recorded activity of muscle contraction or relaxation.
The procedures described herein are specifically concerned with the definition of a test drug action on isolated lung strips. Drug action is characterized either by an action per se on the tissues or by interaction with known smooth muscle receptor stimulants or antagonists.
Usually, the tests will be used to evaluate the ability of a test compound to antagonize the contraction induced by standard agonists in this case LTC4. A relative potency is derived by comparison with one of the standard blocking drugs. In caution, relative potencies of test compounds to known standards are valid only if full dose response curves are generated and the compound compared generate parallel dose/response curves with common maxima. Appropriate "within-trial" comparisons are also necessary.
Molecular antagonists compete with the agonist for the receptor. […] A physiological antagonist produces a response by action on a different receptor that causes an effect in opposition to the agonism.
A permanent isolated bath system is used which facilitates the vertical suspension of a segment of tissue in a small volume of a specific nutritive buffer. Frittered glass terminals provide dispersed bubbles of 95% oxygen and 5% carbon dioxide at the base of the individual tissue baths and the buffer reservoir. All baths and the reservoir are double-jacketed and water at 37° C. is circulated through the jacket of the baths to provide stable temperature regulation. The baths are arranged so that fresh solution from the reservoir passes through a jacketed glass coil to the base of the bath. The bubbling gas stirs the bath solution. During equilibration, fresh solution enters and excess solution is allowed to overflow. Unless a particular drug is required throughout the experiment and it is incorporated in the buffer, individual drugs are introduced directly into the bath by long hypodermic needles to the base of the bath without disturbing the tissue. Drugs are removed by rapidly draining the tissue bath from the bottom and refilling. Tissues are washed a minimum of six times. The emptying and refilling sequence takes only five seconds.
The contraction and relaxation of the smooth muscle preparation can be recorded either isotonically (change in length) or isometrically (change in tension). Isometric transducers are more sensitive and proportional. Isometric contractions are recorded electronically using Grass FT 0.03C force displacement transducers and Beckman Dynagraph recorders. The tissue is suspended vertically with one end of the segment anchored to the bottom of the bath and the other end attached to the mechanical electrical transducer muscle level. The electrical output of this transducer moves a pen on a moving chart in proportion to the force displacement.
Lung tissue is obtained from normal male guinea pigs. The heart and lungs are removed as a unit, placed in buffer, and the lungs are perfused with buffer by the spontaneously beating heart for several minutes.
Where [4] appears, read: Tripeptide challenge, read-out: HHB (Tripeptide), percent inhibition of histamine release.
[5] abbreviates: antigen challenge, read-out: HHB (antigen), percent inhibition of histamine release.

Like-named read-outs stand apart in the source and are kept apart here.

In the case of `O=C(O)c1ccccc1-c1ccccc1C(=O)Nc1ccc(CCc2ccc(C(F)(F)F)cc2)cc1` [Example 10], the results for the inhibition at 33 µM in experiment [1] (setting [4]) and in experiment [1] (setting [5]) were 74% and 62%, respectively. In addition, the IC50 in experiment [2] turned out to be 9.7 µM.

Turning to `O=C(O)c1ccccc1-c1ccccc1C(=O)Nc1ccccc1CCc1ccc(Cl)c(Cl)c1` [Example 12, [1,1'-Biphenyl]-2-carboxylic acid, 2'-[[[2-[2-(3,4-dichlorophenyl)ethyl]phenyl]amino]carbonyl]-], the inhibition at 33 µM was 99% in experiment [1] (setting [4]) and -42% in experiment [1] (setting [5]). The half-inhibitory concentration (IC50) in experiment [2] is 13.7 µM.

For `CC(C)(C)c1cc(CCc2ccc(NC(=O)c3ccccc3-c3ccccc3C(=O)O)cc2)cc(C(C)(C)C)c1O` [Example 14, [1,1'-Biphenyl]-2-carboxylic acid, 2'-[[[4-[2-[3,5-bis(1,1-dimethylethyl)-4-hydroxyphenyl]ethyl]phenyl]amino]carbonyl]-], the values for the inhibition at 33 µM in experiment [1] (setting [4]) and in experiment [1] (setting [5]) were 96% and 41%, respectively. Besides, the concentration for half-maximal inhibition (IC50) in experiment [2] was found to be 3.7 µM.

With `O=C(O)c1ccccc1-c1ccccc1C(=O)Nc1cccc(Cc2ccc(Cl)c(Cl)c2)c1` [Example 17, [1,1'-Biphenyl]-2-carboxylic acid, 2'-[[[3-[(3,4-dichlorophenyl)methyl]phenyl]amino]carbonyl]-], the inhibition at 33 µM in experiment [1] (setting [4]) worked out at 97%. Further, the IC50 in experiment [2] was determined as 10.5 µM.

Turning to `Cc1ccc(CCc2ccc(NC(=O)c3ccccc3-c3ccccc3C(=O)O)cc2)cc1` [Example 18, [1,1'-Biphenyl]-2-carboxylic acid, 2'-[[[4-[2-(4-methylphenyl)ethyl]phenyl]amino]carbonyl]-], the inhibition at 33 µM in experiment [1] (setting [4]) amounted to 98%; in experiment [1] (setting [5]), 60%. Further, in experiment [2], the IC50 stood at 16.5 µM.

`CCCCC/C=C\C\C=C/C=C/C=C/[C@@H](SC[C@H](NC(=O)CC[C@H](N)C(=O)O)C(=O)NCC(=O)O)[C@@H](O)CCCC(=O)O` [LTC4, leukotriene C4]: in experiment [3] (1 ng/ml LTC4, isolated lung strip), the “response (r1), of maximum” value is 15-20%.

For the compound `NCCc1c[nH]cn1` [histamine], in experiment [3] (3×10^-5 M, isolated guinea pig lung strip), the “contraction, of maximum” value was “approximately 75%”. Besides, the minimal effective concentration in experiment [3] (Cavia porcellus, isolated guinea pig lung strip, read-out: threshold dose (contraction of lung strip)) is about 3 µM.
